# Patent US20070142427A1, “Noncyclic 1,3-Dicarbonyl compounds as dual PPAR agonists with potent antihyperglycemic and antihyperlipidemic activity” (Shenzhen Chipscreen Biosciences Ltd., priority 2002, published 2007)
# Columns and labels:
# db/db mice [1] = test: Blood triglyceride lowering in db/db mice in vivo; conditions: male db/db mice, once daily gavage for 9 days; measured at day 9 after 3 hours fasting after dosing, tail blood, Roche Strips (FIG. 4)
# Protocol: (§1) 7 week-old male db/db (C57BLKS/J-m+/+Lepr^db) mice (n=10) from Jackson Laboratories (Bar Harbor, Me.) were treated once daily with indicated doses of the compound by gavage feeding at each morning for 9 consecutive days. All animals were maintained under standardized conditions (12-hour light/dark cycle, 22° C.). At day 9 of the treatment, blood triglyceride level was measured after 3 hours fasting after dosing by taking tail blood using Roche Strips.
# db/db mice [2] = test: Blood glucose lowering in db/db mice in vivo; conditions: male db/db mice, once daily gavage for 9 days; measured at day 9 after 3 hours fasting after dosing, tail blood, Bayer Strips (FIG. 3)
# Protocol: as §1, with “glucose” for “triglyceride”, “Bayer” for “Roche”
smiles,measurement,setting,value
"COC(=O)C(Cc1ccc(OCCOc2ccc3c(c2)CCCC3)cc1)C(=O)OC [CS-01300012, dimethyl 4-[2-(5,6,7,8-tetrahydro-2-naphthoxy)ethoxy] benzylmalonate]",blood triglyceride level,db/db mice [1],effective in lowering blood triglyceride level
same,blood glucose level,db/db mice [2],effective in lowering blood glucose level
